Laboratory results published in paper PMC6359675, “Functionalization of the Chalcone Scaffold for the Discovery of Novel Lead Compounds Targeting Fungal Infections” (Molecules, 2019).
Where “and” joins values, the source holds several entries; their conditions need not be identical. Identical values can stand only once. Like-named read-outs stand apart in the source and are kept apart here.

How the values were obtained:
C. albicans ATCC 10231 [1] = experiment: In vitro susceptibility testing, microdilution broth (EUCAST), C. albicans control strain; format: cell-based, Candida albicans; settings: Candida albicans; for inhibition at 100 µM: ATCC10231, 24 h
Experimental: (§1) The in vitro antifungal activity of the chalcones was evaluated by a microdilution broth method in accordance with the guidelines provided by the EUCAST Edef 7.3 [22]. Briefly, all strains were cultured on Sabauraud dextrose, then inocula, prepared at 0.5 McFarland, were diluted 1:20 in RPMI-1640 medium (Gibco®, ThermoFisher Scientific Inc., Waltham, MA, USA), containing glucose 2%, 0.3% levo-glutamine buffered to pH 7.0 with 0.165 M 3-(N-morpholino)propanesulfonic acid (MOPS) to yield 1-5 × 10^5 cells/mL. A total of 100 µL of the yeast suspension was inoculated in a 96-well microplate and incubated with 100 µL of serially 2-fold dilution of the compound in the range 200–6.25 µM. The following controls were included: yeast suspensions incubated in RPMI-1640 culture medium (positive growth control), or supplemented with dilutions of DMSO, or fluconazole (Sigma-Aldrich, St. Louis, MO, USA) as a commercial drug. To check the background turbidity of reagents and the sterility of the procedure, dilutions of each compound were incubated in RPMI-1640 culture medium, without yeast inoculum. The inoculated plate was incubated at 37 °C for 24 h, and subsequently the optical density at 630 nm was measured by the Multiskan Ascent microplate reader (Thermo Fisher Scientific Inc.). The effectiveness of the compounds was expressed as percent inhibition relative to the positive growth control when the inhibition […] the 50% at 100 µM. The IC50 value was determined by interpolation of the dose–response curves generated by plotting the percentages of growth inhibition, relative to the drug-free control (set to 100% of growth), as a function of the tested concentrations (on a logarithm scale). Statistical analysis was carried out by the nonlinear regression method using GraphPad Prism version 5.0 for Windows (GraphPad Software, San Diego, CA, USA). All assays were performed in triplicate and at least two independent experiments were carried out.

R. mucilaginosa = experiment: In vitro susceptibility testing, R. mucilaginosa clinical isolate; format: cell-based
Source text: (§2) The yeasts included in the present study were Candida albicans ATCC 10231 (American Type Culture Collection) and a collection of yeasts recovered from a variety of clinical specimens, i.e., blood, urine, genital swabs, bronchoalveolar lavage, nail specimens, collected at the Microbiology Unit, St. Orsola Malpighi University Hospital, Bologna, Italy. The clinical strain isolates were identified by standard procedures, including colony morphology on chromogenic agar (CHROMagar Candida medium, Becton Dickinson, Heidelberg, Germany) and confirmed by MALDI Biotyper System using matrix-assisted laser desorption ionization–time of flight mass spectrometry (MALDI-TOF MS, Bruker Daltonik, GmbH, Germany).
as §1

[2] = Cytotoxicity test on Vero cells (WST8/CCK-8 cell viability); format: cell-based, African green monkey; settings: African green monkey, Vero cells (ATCC CCL-81), Vero cells, mean and 95% confidence interval
Experimental: (§3) African green monkey kidney cells (Vero ATCC CCL-81) were cultured in Eagle’s Minimal Essential Medium (MEM) (Sigma-Aldrich), supplemented with 10% fetal bovine serum (FBS) (Carlo Erba Reagents, Milan, Italy), 100 U/mL penicillin, and 100 µg/mL streptomycin at 37 °C with 5% CO2. For experiments, cells were seeded into 96-well plates at 10^4 cells/well, and incubated at 37 °C for 24 h. Following washes with PBS, cell monolayer was incubated with 100 µL of serially 2-fold dilution of the compound in the range 200–6.25 µM. Both untreated cells and cells incubated with medium containing solvent dilutions were included in each experiment as controls.
(§4) The cell viability was assessed by a WST8-based assay according to the manufacturer’s instructions (CCK-8, Cell Counting Kit-8, Dojindo Molecular Technologies, Rockville, MD, USA). After 72 h of incubation, culture medium was removed from each well, the monolayer was washed with PBS, and 100 µL of fresh medium containing 10 µL of CCK-8 solution were added. Following a 2 h at 37 °C, the absorbance was measured at 450/630 nm; data were calculated as the percentage of the cell viability relative to the untreated controls.

Vero cells (ATCC CCL-81) = experiment: as above; format: cell-based, African green monkey; settings: 72 h, up to the highest concentration of 200 μM
Experimental: as §3, §4

C. albicans = experiment: In vitro susceptibility testing, C. albicans clinical isolate; format: cell-based; settings: Candida albicans
Source text: as §2, §1

C. tropicalis = experiment: In vitro susceptibility testing, C. tropicalis clinical isolate; format: cell-based; settings: Candida tropicalis
Source text: as §2, §1

C. utilis = experiment: In vitro susceptibility testing, C. utilis clinical isolate; format: cell-based; settings: Williopsis jadinii
Source text: as §2, §1

C. neoformans = experiment: In vitro susceptibility testing, C. neoformans clinical isolate; format: cell-based; settings: Cryptococcus neoformans
Source text: as §2, §1

C. glabrata = experiment: In vitro susceptibility testing, C. glabrata clinical isolate; format: cell-based; settings: Nakaseomyces glabratus
Source text: as §2, §1

C. krusei = experiment: In vitro susceptibility testing, C. krusei clinical isolate; format: cell-based; settings: Pichia kudriavzevii
Source text: as §2, §1

C. lusitaniae = experiment: In vitro susceptibility testing, C. lusitaniae clinical isolate; format: cell-based; settings: Clavispora lusitaniae
Source text: as §2, §1

C. parapsilosis = experiment: In vitro susceptibility testing, C. parapsilosis clinical isolate; format: cell-based; settings: Lodderomyces parapsilosis
Source text: as §2, §1

S. clavata = experiment: In vitro susceptibility testing, S. clavata clinical isolate; format: cell-based
Source text: as §2, §1

C. albicans ATCC 10231 [3] = experiment: Disruption of preformed mature biofilm (biofilm metabolic activity); format: cell-based, Candida albicans; settings: compounds added to preformed mature biofilm; statistically significant
C. albicans ATCC 10231 [4] = experiment: Agar-invasive hyphal growth (Spider agar assay); format: cell-based, Candida albicans; settings: compounds at IC50 values, three days at 37 °C
Experimental: Aliquots (2 µL) of a suspension of C. albicans ATCC 10231 (5 × 10^5 cells/mL) were spotted onto medium in triplicate and the morphology of growing colonies was observed following three days of incubation at 37 °C. Spider agar plates without chalcones, containing DMSO, served as the control. The presence of filaments at the colony edges was determined using a light microscope under 10× magnification.

[5] = ATCC10231, C. albicans ATCC 10231, mean and 95% confidence interval, read-out: IC50
[6] = ATCC10231, C. albicans ATCC 10231, mean and 95% confidence interval, read-out: IC50 [μg/mL]
[7] = clinical isolate, read-out: IC50 R. mucilaginosa
[8] = clinical isolate, mean and 95% confidence interval, read-out: IC50 C. albicans
[9] = clinical isolate, read-out: IC50 C. tropicalis
[10] = clinical isolate, read-out: IC50 C. utilis
[11] = clinical isolate, read-out: IC50 C. neoformans
[12] = clinical isolate, read-out: IC50 C. glabrata
[13] = clinical isolate, read-out: IC50 C. krusei
[14] = clinical isolate, read-out: IC50 C. lusitaniae
[15] = clinical isolate, read-out: IC50 C. parapsilosis
[16] = clinical isolate, read-out: IC50 S. clavata

Structure (SMILES) | IC50 (C. albicans ATCC 10231 [1]; [5]) [µM] | IC50 (C. albicans ATCC 10231 [1]; [6]) [µg/mL] | inhibition at 100 µM (C. albicans ATCC 10231 [1]; C. albicans ATCC 10231) [%] | IC50 (R. mucilaginosa; [7]) | CC50 at 72 h ([2]; read-out: CC50) [µM] | CC50 at 72 h ([2]; read-out: CC50 [μg/mL]) [µg/mL] | toxicity on Vero cells, in words (Vero cells (ATCC CCL-81)) | IC50 (C. albicans; [8]) | IC50 (C. tropicalis; [9]) | IC50 (C. utilis; [10]) | IC50 (C. neoformans; [11]) | IC50 (C. glabrata; [12]) | IC50 (C. krusei; [13]) | IC50 (C. lusitaniae; [14]) | IC50 (C. parapsilosis; [15]) | IC50 (S. clavata; [16]) | further results
O=C(/C=C/c1ccc(F)cc1)c1cc(Cl)ccc1O [Compound 4, (E)-1-(5-Chloro-2-hydroxyphenyl)-3-(4-fluorophenyl)prop-2-en-1-one] | 48.9 | 13.5 | 65.6 ± 3.3 | 81.8 µM and 22.6 µg/mL | > 200 | > 55.3 | did not display any toxicity | 69.6 µM and 19.3 µg/mL | 200 µM and 55.3 µg/mL | 96.7 µM and 26.8 µg/mL | 27.1 µM and 7.5 µg/mL | 200 µM and 55.3 µg/mL | 200 µM and 55.3 µg/mL | 34.6 µM and 9.6 µg/mL | > 200 µM and > 55.3 µg/mL | 200 µM and 55.3 µg/mL | –
O=C(/C=C/c1cc(F)cc(F)c1)c1cc(Cl)ccc1O [Compound 5, (E)-1-(5-Chloro-2-hydroxyphenyl)-3-(3,5-difluorophenyl)prop-2-en-1-one] | 51.3 | 15.1 | 62 ± 1.5 | 22.7 µg/mL and 76.9 µM | > 200 | > 58.9 | did not display any toxicity | 29.5 µg/mL and 100 µM | > 58.9 µg/mL and > 200 µM | 29.5 µg/mL and 100 µM | 5.3 µg/mL and 18 µM | > 58.9 µg/mL and > 200 µM | > 58.9 µg/mL and > 200 µM | 14.1 µg/mL and 47.9 µM | 58.9 µg/mL and 200 µM | 29.5 µg/mL and 100 µM | reduction of metabolism of sessile cells in mature biofilm (C. albicans ATCC 10231 [3]): < 25%; invasion of Spider medium (filamentation) (C. albicans ATCC 10231 [4]): unable to penetrate the medium
C#CCOc1ccc(C(=O)/C=C/c2ccc([N+](=O)[O-])cc2)c(OC)c1 [Compound 14] | 39.2 | 11.5 | 63.6 ± 6.8 | 100 µM and 33.7 µg/mL | > 200 | > 58.6 | did not display any toxicity | 31.4 µM and 10.6 µg/mL | 200 µM and 67.5 µg/mL | 33.7 µM and 11.4 µg/mL | 28.4 µM and 9.6 µg/mL | 200 µM and 67.5 µg/mL | 200 µM and 67.5 µg/mL | 48.8 µM and 14.8 µg/mL | 100 µM and 33.7 µg/mL | 100 µM and 33.7 µg/mL | –
COc1cc(OCCN2CCN(c3ccccc3)CC2)ccc1C(=O)/C=C/c1ccc(F)cc1 [Compound 28, (E)-3-(4-Fluorophenyl)-1-(2-methoxy-4-(2-(4-phenylpiperazin-1-yl)ethoxy)phenyl)prop-2-en-1-one] | 55.9 | 27.7 | 99.1 ± 0.7 | 48.5 µM and 21.4 µg/mL | > 200 | > 99.2 | did not display any toxicity | 48.1 µM and 23.9 µg/mL | 26.6 µM and 13.2 µg/mL | 29.6 µM and 14.7 µg/mL | 17.7 µM and 8.8 µg/mL | 37.1 µM and 18.4 µg/mL | 63.5 µM and 31.5 µg/mL | 26.5 µM and 13.1 µg/mL | 36.8 µM and 18.3 µg/mL | 27.9 µM and 13.8 µg/mL | IC50 (C. albicans ATCC 10231 [1]; ATCC10231, Table S1, variable slope best-fit, C. albicans ATCC 10231, read-out: IC50): 55.6 µM; IC50 (R. mucilaginosa; Table S2, best-fit, R. mucilaginosa, read-out: IC50): 46.2 µM; IC50 (C. albicans; Table S1, best-fit, C. albicans clinical isolate, read-out: IC50): 48.1 µM; IC50 (C. tropicalis; Table S1, best-fit, C. tropicalis, read-out: IC50): 26.6 µM; IC50 (C. utilis; Table S1, best-fit, C. utilis, read-out: IC50): 29.6 µM; IC50 (C. neoformans; Table S2, best-fit, C. neoformans, read-out: IC50): 17.7 µM; IC50 (C. glabrata; Table S1, best-fit, C. glabrata, read-out: IC50): 35.9 µM; IC50 (C. krusei; Table S1, best-fit, C. krusei, read-out: IC50): 63.6 µM; IC50 (C. lusitaniae; Table S1, best-fit, C. lusitaniae, read-out: IC50): 26.5 µM; IC50 (C. parapsilosis; Table S1, best-fit, C. parapsilosis, read-out: IC50): 31.3 µM; IC50 (S. clavata; Table S2, best-fit, S. clavata, read-out: IC50): 28 µM
